Experiments:
Assay in all cases: Kinase selectivity, scanMAX Kinase assay panel (DiscoverX), % control at 1 uM
Format in all cases: binding
[1] = target: T1, scanMAX Kinase assay panel (Homo sapiens, UniProt Q13188); conditions: MST2; 1 uM; read-out: Percent Control (%)
T1 construct: purchased DiscoverX
T1 sequence (Q13188 1-491): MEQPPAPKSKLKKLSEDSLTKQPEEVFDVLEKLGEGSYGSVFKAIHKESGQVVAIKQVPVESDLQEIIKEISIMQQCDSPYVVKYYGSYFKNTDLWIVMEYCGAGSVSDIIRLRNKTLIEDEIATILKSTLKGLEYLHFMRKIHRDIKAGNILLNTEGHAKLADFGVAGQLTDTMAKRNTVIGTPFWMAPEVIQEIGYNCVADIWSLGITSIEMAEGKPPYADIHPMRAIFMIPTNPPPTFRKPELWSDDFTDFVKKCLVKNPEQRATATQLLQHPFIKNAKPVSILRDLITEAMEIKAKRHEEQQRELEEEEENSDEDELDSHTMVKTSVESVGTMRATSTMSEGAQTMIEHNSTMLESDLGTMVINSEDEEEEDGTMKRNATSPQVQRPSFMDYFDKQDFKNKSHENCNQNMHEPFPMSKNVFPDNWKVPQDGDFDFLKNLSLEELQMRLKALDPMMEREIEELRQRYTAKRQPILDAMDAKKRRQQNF
Outline: (§1)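 Compounds were tested at 1 uM in DMSO against each enzyme in the panel. Percent control was calculated as (compound − positive control)/(negative control − positive control) × 100, and a compound was scored active on a kinase when this value fell below 35.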

[2] = target: T2, scanMAX Kinase assay panel (Homo sapiens, UniProt P36888, N841I); conditions: FLT3 (N841I); 1 uM; read-out: Percent Control (%)
T2 construct: purchased DiscoverX
T2 sequence (P36888 27-993 N841I): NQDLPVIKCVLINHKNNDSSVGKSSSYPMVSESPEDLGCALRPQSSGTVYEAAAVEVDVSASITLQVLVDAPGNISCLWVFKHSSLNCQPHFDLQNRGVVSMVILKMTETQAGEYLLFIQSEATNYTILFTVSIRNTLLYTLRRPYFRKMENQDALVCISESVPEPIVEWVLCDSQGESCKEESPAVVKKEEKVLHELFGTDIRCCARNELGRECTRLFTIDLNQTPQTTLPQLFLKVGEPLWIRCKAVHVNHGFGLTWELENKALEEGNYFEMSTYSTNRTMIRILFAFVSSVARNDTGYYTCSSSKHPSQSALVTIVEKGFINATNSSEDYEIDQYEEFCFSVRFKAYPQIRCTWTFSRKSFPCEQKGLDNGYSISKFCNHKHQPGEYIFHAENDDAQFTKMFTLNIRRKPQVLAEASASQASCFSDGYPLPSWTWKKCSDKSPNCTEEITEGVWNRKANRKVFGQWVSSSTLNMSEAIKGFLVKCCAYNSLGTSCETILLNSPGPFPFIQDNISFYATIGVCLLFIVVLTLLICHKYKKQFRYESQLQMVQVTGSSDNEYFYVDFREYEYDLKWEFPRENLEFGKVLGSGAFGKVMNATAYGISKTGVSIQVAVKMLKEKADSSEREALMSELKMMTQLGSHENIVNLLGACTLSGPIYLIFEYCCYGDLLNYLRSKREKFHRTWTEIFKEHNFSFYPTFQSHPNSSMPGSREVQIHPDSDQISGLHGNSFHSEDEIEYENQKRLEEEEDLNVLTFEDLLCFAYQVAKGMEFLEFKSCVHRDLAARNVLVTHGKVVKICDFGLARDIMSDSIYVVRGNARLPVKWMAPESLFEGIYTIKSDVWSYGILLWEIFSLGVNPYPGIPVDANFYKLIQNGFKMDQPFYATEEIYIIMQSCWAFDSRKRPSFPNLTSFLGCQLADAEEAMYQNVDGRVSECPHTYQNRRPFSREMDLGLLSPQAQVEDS
Outline: as §1

[3] = target: T3, scanMAX Kinase assay panel (Homo sapiens, UniProt P06241); conditions: FYN; 1 uM; read-out: Percent Control (%)
T3 construct: purchased DiscoverX
T3 sequence (P06241 whole entry): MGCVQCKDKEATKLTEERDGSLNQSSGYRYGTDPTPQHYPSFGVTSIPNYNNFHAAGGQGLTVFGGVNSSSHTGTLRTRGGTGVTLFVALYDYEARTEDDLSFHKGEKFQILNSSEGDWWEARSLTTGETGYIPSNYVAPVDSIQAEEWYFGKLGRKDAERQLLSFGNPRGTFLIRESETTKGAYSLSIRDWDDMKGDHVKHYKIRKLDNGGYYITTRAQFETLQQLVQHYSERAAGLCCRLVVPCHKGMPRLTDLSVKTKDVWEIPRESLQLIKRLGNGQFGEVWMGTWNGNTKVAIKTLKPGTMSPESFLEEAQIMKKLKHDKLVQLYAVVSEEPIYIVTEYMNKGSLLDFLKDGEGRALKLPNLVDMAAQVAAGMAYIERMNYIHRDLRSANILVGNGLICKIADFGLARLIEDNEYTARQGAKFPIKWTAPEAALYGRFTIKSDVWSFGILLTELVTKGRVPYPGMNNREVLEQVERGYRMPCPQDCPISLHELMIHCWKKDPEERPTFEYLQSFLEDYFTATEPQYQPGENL
Outline: as §1

[4] = target: T4, scanMAX Kinase assay panel (Homo sapiens, UniProt O15146); conditions: MUSK; 1 uM; read-out: Percent Control (%)
T4 construct: purchased DiscoverX
T4 sequence (O15146 24-869): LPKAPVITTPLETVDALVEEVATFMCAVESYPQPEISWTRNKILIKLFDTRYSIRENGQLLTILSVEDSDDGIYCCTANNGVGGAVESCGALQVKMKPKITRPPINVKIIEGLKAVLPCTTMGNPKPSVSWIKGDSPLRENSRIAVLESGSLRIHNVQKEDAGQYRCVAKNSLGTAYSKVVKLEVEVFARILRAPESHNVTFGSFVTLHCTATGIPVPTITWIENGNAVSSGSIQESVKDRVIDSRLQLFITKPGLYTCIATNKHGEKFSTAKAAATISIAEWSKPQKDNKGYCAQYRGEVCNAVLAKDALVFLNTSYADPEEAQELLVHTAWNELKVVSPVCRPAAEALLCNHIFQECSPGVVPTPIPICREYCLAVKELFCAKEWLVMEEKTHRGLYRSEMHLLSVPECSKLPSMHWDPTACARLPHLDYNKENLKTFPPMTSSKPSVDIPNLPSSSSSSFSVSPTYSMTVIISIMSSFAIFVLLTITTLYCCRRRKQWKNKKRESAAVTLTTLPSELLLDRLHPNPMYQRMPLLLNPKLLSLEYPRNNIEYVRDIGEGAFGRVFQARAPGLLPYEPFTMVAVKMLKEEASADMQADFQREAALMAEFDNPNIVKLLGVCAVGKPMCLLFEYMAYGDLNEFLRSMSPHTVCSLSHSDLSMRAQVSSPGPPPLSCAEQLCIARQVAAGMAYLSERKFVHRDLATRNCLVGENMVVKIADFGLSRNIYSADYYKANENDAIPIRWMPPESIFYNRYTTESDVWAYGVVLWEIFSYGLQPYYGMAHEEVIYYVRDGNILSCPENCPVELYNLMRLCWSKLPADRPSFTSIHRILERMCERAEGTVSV
Outline: as §1

[5] = target: T5, scanMAX Kinase assay panel (Homo sapiens, UniProt Q16512); conditions: PKN1; 1 uM; read-out: Percent Control (%)
T5 construct: purchased DiscoverX
T5 sequence (Q16512 whole entry): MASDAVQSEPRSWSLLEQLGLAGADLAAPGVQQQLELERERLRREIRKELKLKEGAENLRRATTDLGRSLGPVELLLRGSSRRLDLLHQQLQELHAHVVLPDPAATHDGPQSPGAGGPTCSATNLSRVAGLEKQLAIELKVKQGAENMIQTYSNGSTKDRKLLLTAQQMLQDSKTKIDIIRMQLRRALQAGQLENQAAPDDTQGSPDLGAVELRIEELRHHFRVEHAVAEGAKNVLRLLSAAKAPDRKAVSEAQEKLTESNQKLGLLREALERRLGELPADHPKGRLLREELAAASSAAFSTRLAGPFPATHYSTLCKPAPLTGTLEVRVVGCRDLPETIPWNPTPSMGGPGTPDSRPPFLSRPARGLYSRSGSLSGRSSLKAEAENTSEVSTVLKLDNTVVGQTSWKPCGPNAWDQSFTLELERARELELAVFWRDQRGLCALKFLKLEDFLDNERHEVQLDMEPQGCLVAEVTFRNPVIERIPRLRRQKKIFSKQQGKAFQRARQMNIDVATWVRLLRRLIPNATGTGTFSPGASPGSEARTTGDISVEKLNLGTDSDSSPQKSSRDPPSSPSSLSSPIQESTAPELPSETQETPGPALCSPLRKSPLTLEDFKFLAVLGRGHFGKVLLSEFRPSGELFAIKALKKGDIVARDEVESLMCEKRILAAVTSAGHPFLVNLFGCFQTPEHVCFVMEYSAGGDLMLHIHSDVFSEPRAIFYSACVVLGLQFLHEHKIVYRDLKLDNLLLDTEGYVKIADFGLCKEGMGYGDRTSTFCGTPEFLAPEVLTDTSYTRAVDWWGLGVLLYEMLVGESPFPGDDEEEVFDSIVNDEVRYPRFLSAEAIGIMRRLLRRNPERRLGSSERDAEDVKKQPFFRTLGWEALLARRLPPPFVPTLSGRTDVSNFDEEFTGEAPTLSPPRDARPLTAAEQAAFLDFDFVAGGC
Outline: as §1

[6] = target: T6, scanMAX Kinase assay panel (Homo sapiens, UniProt P49336); conditions: CDK8; 1 uM; read-out: Percent Control (%)
T6 construct: purchased DiscoverX
T6 sequence (P49336 whole entry): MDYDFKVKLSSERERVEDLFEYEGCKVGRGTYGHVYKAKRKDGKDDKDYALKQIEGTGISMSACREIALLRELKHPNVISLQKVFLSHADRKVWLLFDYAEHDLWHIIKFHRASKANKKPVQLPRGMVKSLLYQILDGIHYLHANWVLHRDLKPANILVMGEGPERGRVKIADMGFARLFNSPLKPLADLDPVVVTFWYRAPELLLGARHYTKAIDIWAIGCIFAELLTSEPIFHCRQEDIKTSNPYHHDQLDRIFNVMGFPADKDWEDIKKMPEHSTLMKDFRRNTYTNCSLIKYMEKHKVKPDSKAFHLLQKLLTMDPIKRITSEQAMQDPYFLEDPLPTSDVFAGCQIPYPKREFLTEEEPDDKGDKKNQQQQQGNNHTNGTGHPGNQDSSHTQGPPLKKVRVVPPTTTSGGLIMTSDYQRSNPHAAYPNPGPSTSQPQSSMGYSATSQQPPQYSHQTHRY
Outline: as §1

Row | SMILES | remaining binding at 1 µM [1] | remaining binding at 1 µM [2] | remaining binding at 1 µM [3] | remaining binding at 1 µM [4] | remaining binding at 1 µM [5] | remaining binding at 1 µM [6]
1 | Cc1ccc(NC(=O)C2(C(=O)Nc3ccc(F)cc3)CC2)cc1C#Cc1cnc2c(Nc3cnn(C(C)C)c3)cccn12 [Example 78] | 85% | 59% | 84% | 63% | 83% | 100%
2 | Cc1cn(-c2cc(NC(=O)c3ccc(C)c(C#Cc4cnc5c(Nc6cnn(C)c6)cccn45)c3)cc(C(F)(F)F)c2)cn1 [Example 12, 4-methyl-N-(3-(4-methyl-1H-imidazol-1-yl)-5-(trifluoromethyl)phenyl)-3-((8-((1-methyl-1H-pyrazol-4-yl)amino)imidazo[1,2-a]pyridin-3-yl)ethynyl)benzamide] | 100% | 28% | 15% | 21% | 82% | 31%
3 | Cc1ccc(C(=O)Nc2ccc(CN3CCN(C)CC3)c(C(F)(F)F)c2)cc1C#Cc1cnc2c(Nc3cnn(C)c3)cccn12 [Example 1, 4-methyl-3-((8-((1-methyl-1H-pyrazol-4-yl)amino)imidazo[1,2-a]pyridin-3-yl)ethynyl)-N-(4-((4-methylpiperazin-1-yl)methyl)-3-(trifluoromethyl)phenyl)benzamide] | 5% | 0% | 1% | 1% | 78% | 4%
